In patent US20120074014A1, “PRODUCT TYPICALLY BASED ON SALT OF PEROXYMONOSULFURIC ACID AND SUITABLE FOR MEDICINAL USAGE, AND ASSOCIATED PRODUCT FABRICATION” (LuTran Industries, Inc., priority 2010, published 2012):
Where two headings read alike, the source gives them in different places.

Columns and labels:
dandruff = test: Example K: case treatment of dandruff, scalp scrubbing; format: in vivo, human; conditions: earlier treatment tried by the patient; (some of) these decreased the amount of dandruff; patient report
Excerpt: Given below are examples of using the medicinal drug of type I/II for treating allergic rhinitis, osteoarthritis, gouty arthritis, bronchitis, hemorrhoids, urticaria, toothache, tinea pedis, acute viral nasopharyngitis, herpes simplex, dandruff, itching, bromhidrosis, and vaginitis. […] A formulation approximating this formulation is commercially available in the product Virkon. This formulation of the drug of type I/II is referred to below as the “Medicine”.
The Medicine for each person infected with allergic rhinitis, osteoarthritis, gouty arthritis, bronchitis, hemorrhoids, urticaria, toothache, tinea pedis, acute viral nasopharyngitis, herpes simplex, dandruff, itching, bromhidrosis, and vaginitis is provided for topical, intranasal, oral, or/and injection administration 1-12 times per day, preferably 1-8 times per day, more preferably 1-6 times per day, typically 1-4 times per day, in liquid form at a dosage of 0.00001-5%, preferably 0.001-3%, more preferably 0.1-2%, typically 0.5-1%, for a time of contact of 1 minute-12 hours, preferably 1 minute-6 hours, more preferably 1 minute-2 hours, typically 1-30 minutes.
The Medicine was provided to […] as a 1% solution for topical administration by scrubbing the Medicine into their scalp and hair for 5 minutes and then washing their scalp and hair. The […] reported that they administered the Medicine to themself in the foregoing manner 4 times a week for 2 weeks.

vaginitis = test: Example N: case treatment of vaginitis, vaginal immersion; format: in vivo, human; conditions: earlier treatment tried by the patient; patient report
Excerpt: (§1) Given below are examples of using the medicinal drug of type I/II for treating allergic rhinitis, osteoarthritis, gouty arthritis, bronchitis, hemorrhoids, urticaria, toothache, tinea pedis, acute viral nasopharyngitis, herpes simplex, dandruff, itching, bromhidrosis, and vaginitis. The formulation of the drug of type I/II used in these examples was the preferred formulation, mentioned above, in which the drug was formed with potassium hydrogen peroxymonosulfate as the active oxygen-releasing material, sodium chloride as the inorganic halide, sodium hexametaphosphate as the alkali metal phosphate, sulfamic acid, malic acid as the non-reducing organic acid, and sodium dodecylbenzene sulfonate as the surfactant at approximately the typical mass percentages mentioned above. A formulation approximating this formulation is commercially available in the product Virkon. This formulation of the drug of type I/II is referred to below as the “Medicine”. […]

[1] = tested on: simian vacuolating virus 40; conditions: Sporkenbach, U.S. Pat. No. 4,404,191; cited from earlier work
coxsackie virus = conditions: Sporkenbach, U.S. Pat. No. 4,404,191; cited from earlier work
poliovirus = conditions: Sporkenbach, U.S. Pat. No. 4,404,191; cited from earlier work
adenovirus = conditions: Sporkenbach, U.S. Pat. No. 4,404,191; cited from earlier work
osteoarthritis = test: Example B: case treatment of osteoarthritis, complete-body immersion; format: in vivo, human; conditions: earlier treatment tried by the patient; patient report
Excerpt: as §1

[2] = cited from earlier work

zinc pyrithione
dandruff after earlier treatments (dandruff): still visible

C[C@]12CCC(=O)C=C1CC[C@@H]1[C@@H]2[C@@H](O)C[C@@]2(C)[C@H]1CC[C@]2(O)C(=O)CO [hydrocortisone]
success of earlier treatments for vaginitis (vaginitis): without significant success

O=S(=O)([O-])OO.[K+] [potassium hydrogen peroxymonosulfate]
inactivation of simian vacuolating virus 40 [1]: inactivated
inactivation of coxsackie virus (coxsackie virus): inactivated
inactivation of poliovirus (poliovirus): inactivated
inactivation of adenovirus (adenovirus): inactivated

CC(=O)N1CCN(c2ccc(OCC3COC(Cn4ccnc4)(c4ccc(Cl)cc4Cl)O3)cc2)CC1 (centres unmarked) [ketoconazole]
dandruff after earlier treatments (dandruff): still visible

S=[Se]=S [selenium sulfide]
dandruff after earlier treatments (dandruff): still visible

N[C@H]1C(O)O[C@H](CO)[C@@H](O)[C@@H]1O (some centres unmarked) [glucosamine]
relief of osteoarthritis by earlier treatments (osteoarthritis): without effective relief

potassium monopersulfate triple salt
loss of active oxygen content per month ([2]; anhydrous solid, reported in Tufano): roughly 1%
loss of active oxygen content per month ([2]; solutions (solvent presumably high-purity water), Tufano and Durante): 3-5%
